Reference: PMC8863796 (Communications Biology, 2022)
“And” between values parts separate entries of the source, which are not always exact repeats. Identical values can stand only once. “Also recorded” adds a separate entry of the source. Like-named read-outs stand apart in the source and are kept apart here.

Key:
[1] = system: SARS-CoV-2; assay: microbe, parasite or virus in culture; format: cell-based; details: for EC25: concentration used in combinations; for virus titer: Calu-3, MOI 0.1, three columns per treatment
[2] = Cytotoxicity assay (XTT); format: cell-based; details: human
Procedure: Monolayers of 1.5 × 10^4 cells in 96-well plates were treated for 3 days with various concentrations (semi-log dilutions from 1000 to 10 µM) of the antiviral drugs. Then, 5 mg/ml 2,3-bis-(2-methoxy-4-nitro-5-sulfophenyl)-2H-tetrazolium-5-carboxanilide (XTT) in DMEM was added to the cells in the presence of 0.01% N-methyl dibenzopyrazine methyl sulfate (PMS). After incubating for 4 h at 37 °C, the cells were measured in a spectrophotometer at 492 nm and 620 nm.

[3] = system: SARS-CoV-2; format: cell-based; design: Response: unit not given here
[4] = target: SARS-CoV-2 exonuclease complex (nsp14/nsp10) (Severe acute respiratory syndrome coronavirus 2, UniProt P0DTD1); format: biochemical
[5] = Severe acute respiratory syndrome coronavirus 2, 48 h, Calu-3 cells, MOI 0.1, 48-72 h, PFU in Vero E6, NS5A inhibitor at fixed concentration in combinations
[6] = Table S-1, 3 days treatment, XTT, read-out: CC50
[7] = Drug2 100 nM alone (Drug1 0 nM)
[8] = Drug2 1000 nM alone (Drug1 0 nM)
[9] = Drug2 5000 nM alone (Drug1 0 nM)
[10] = combined with Ombitasvir, Calu-3 cells
[11] = Drug1 100 nM alone (Drug2 0 nM)
[12] = Drug1 1000 nM alone (Drug2 0 nM)
[13] = Drug1 10000 nM alone (Drug2 0 nM)
[14] = 30 nM nsp14/nsp10, 500 nM RNA, 30, 100, 300 µM

## COC(=O)N[C@H](C(=O)N1CCC[C@H]1c1nc(-c2ccc(-c3ccc(-c4c[nH]c([C@@H]5CCCN5C(=O)[C@@H](NC(=O)OC)C(C)C)n4)cc3)cc2)c[nH]1)C(C)C [Daclatasvir]
[1]; Calu-3 cells
  EC25: 0.5 µM
[1]; [5]
  EC50: 0.7 µM
  EC90: 3.8 µM
[2]; [6]
  CC50 at 3 days: 38 ± 5 µM
[3]; Conc1 0 nM, Conc2 100 nM
  Response (percentage of inhibition): 3%
[3]; Conc1 0 nM, Conc2 500 nM
  Response (percentage of inhibition): 10%
[3]; Conc1 0 nM, Conc2 1000 nM
  Response (percentage of inhibition): 45%
[3]; Conc1 0 nM, Conc2 5000 nM
  Response (percentage of inhibition): 62%
[3]; [7]
  Response: 3
[3]; Drug2 500 nM alone (Drug1 0 nM)
  Response: 10
[3]; [8]
  Response: 45
[3]; [9]
  Response: 62
[3]; with RDV
  combination effect (SynergyFinder): additive (between 10 and −10)
[3]; with the other RdRp inhibitors tested (Fig. 8b-d)
  combination effect (SynergyFinder): synergistic (scores above 10)

## NC(=O)c1nc(F)cnc1O [Favipiravir, 6-fluoro-3-hydroxy-2-pyrazinecarboxamide]
[1]; Drug Concentration 0.01 μM
  virus titer: 8.96E+05 PFU/mL and 1.41E+06 PFU/mL
[1]; Drug Concentration 0.1 μM
  virus titer: 5.76E+05 PFU/mL and 7.04E+05 PFU/mL
[1]; Drug Concentration 1 μM
  virus titer: 4.48E+05 PFU/mL and 5.12E+05 PFU/mL
[1]; Drug Concentration 10 μM
  virus titer: 4.16E+05 PFU/mL and 2.24E+05 PFU/mL
[1]; [5]
  EC50: 7.8 µM
[1]; by Pibrentasvir (0.1 μM)
  fold increase of potency: tenfold
[1]; [10]
  inhibition of SARS-CoV-2: 2 log10
  reduction of virus replication: 99%
[2]
  CC50 at 3 days: 670 ± 118 µM
[3]; Drug1 10 nM alone (Drug2 0 nM)
  Response: 10
[3]; [11]
  Response: 49
[3]; [12]
  Response: 63
[3]; [13]
  Response: 70

## Cc1cccc(C)c1OCC(=O)N[C@@H](Cc1ccccc1)[C@@H](O)C[C@H](Cc1ccccc1)NC(=O)[C@H](C(C)C)N1CCCNC1=O [Lopinavir]
[4]; [14]
  inhibition of SARS-CoV-2 exonuclease activity: exonuclease activity was inhibited; also recorded: inhibit the SARS-CoV-2 exonuclease in a concentration-dependent manner, but with less potency than Pibrentasvir and Ombitasvir

## COC(=O)N[C@H](C(=O)N1CCC[C@H]1C(=O)Nc1ccc([C@@H]2CC[C@@H](c3ccc(NC(=O)[C@@H]4CCCN4C(=O)[C@@H](NC(=O)OC)C(C)C)cc3)N2c2ccc(C(C)(C)C)cc2)cc1)C(C)C [Ombitasvir]
[1]; Calu-3 cells
  EC25: 0.1 µM
[2]; [6]
  CC50 at 3 days: 70 ± 12 µM
[3]; Conc1 0 nM, Conc2 10 nM
  Response (percentage of inhibition): 2%
[3]; Conc1 0 nM, Conc2 100 nM
  Response (percentage of inhibition): 20%
[3]; Conc1 0 nM, Conc2 1000 nM
  Response (percentage of inhibition): 50%
[3]; Conc1 0 nM, Conc2 5000 nM
  Response (percentage of inhibition): 75%
[3]; Drug2 10 nM alone (Drug1 0 nM)
  Response: 2
[3]; [7]
  Response: 20
[3]; [8]
  Response: 50
[3]; [9]
  Response: 75
[3]; with Favipiravir
  combination effect (SynergyFinder): synergistic (scores above 10)
[3]; with RDV
  combination effect (SynergyFinder): synergistic (scores above 10)
[3]; with Sofosbuvir
  combination effect (SynergyFinder): synergistic (scores above 10)
[3]; with Tenofovir
  combination effect (SynergyFinder): synergistic (scores above 10)

## COC(=O)N[C@H](C(=O)N1CCC[C@H]1c1nc2cc([C@H]3CC[C@H](c4cc5nc([C@@H]6CCCN6C(=O)[C@@H](NC(=O)OC)[C@@H](C)OC)[nH]c5cc4F)N3c3cc(F)c(N4CCC(c5ccc(F)cc5)CC4)c(F)c3)c(F)cc2[nH]1)[C@@H](C)OC [Pibrentasvir]
[4]; 500 nM RNA, 50 nM nsp14/nsp10, 37 °C, 15 min, varying amounts of inhibitor (Pibrentasvir 1, 10, 20 μM)
  inhibition of SARS-CoV-2 exonuclease activity: reduced exonuclease activity in a concentration-dependent manner
[4]; 20 μM, Favipiravir-, NHC- and AT-9010-terminated RNA
  inhibition of SARS-CoV-2 exonuclease activity: exonuclease activity was largely abrogated
[4]; 20 µM, RNA with delayed termination by Remdesivir, 400 nM RNA
  inhibition of SARS-CoV-2 exonuclease activity: exonuclease activity was inhibited
[4]; 20 µM, Sofosbuvir- and Remdesivir-terminated RNA
  inhibition of SARS-CoV-2 exonuclease activity: exonuclease activity was substantially inhibited
[4]; 20 µM, Tenofovir-terminated RNA
  inhibition of SARS-CoV-2 exonuclease activity: exonuclease activity was almost completely eliminated
[1]; Calu-3 cells
  EC25: 0.1 µM
[2]; [6]
  CC50 at 3 days: 22 ± 3 µM
[3]; Conc1 0 nM, Conc2 10 nM
  Response (percentage of inhibition): 2%
[3]; Conc1 0 nM, Conc2 100 nM
  Response (percentage of inhibition): 20%
[3]; Conc1 0 nM, Conc2 1000 nM
  Response (percentage of inhibition): 50%
[3]; Conc1 0 nM, Conc2 5000 nM
  Response (percentage of inhibition): 75%
[3]; Drug2 10 nM alone (Drug1 0 nM)
  Response: 2
[3]; [7]
  Response: 20
[3]; [8]
  Response: 50
[3]; [9]
  Response: 75
[3]; with Favipiravir
  combination effect (SynergyFinder): synergistic (scores above 10)
[3]; with RDV
  combination effect (SynergyFinder): synergistic (scores above 10)
[3]; with Sofosbuvir
  combination effect (SynergyFinder): additive (between 10 and −10)
[3]; with Tenofovir
  combination effect (SynergyFinder): additive (between 10 and −10)

## CCC(CC)COC(=O)[C@H](C)N[P@](=O)(OC[C@H]1O[C@@](C#N)(c2ccc3c(N)ncnn23)[C@H](O)[C@@H]1O)Oc1ccccc1 [Remdesivir]
[1]; Calu-3 cells, MOI 0.1, 48-72 h, PFU in Vero E6, NS5A inhibitor at fixed concentration in combinations
  EC99 Mean: 1.1 µM
[1]; Drug Concentration 0.01 μM, listed as RDV
  virus titer: 6.40E+05 PFU/mL and 5.76E+05 PFU/mL and 6.08E+05 PFU/mL
[1]; Drug Concentration 0.1 μM, listed as RDV
  virus titer: 3.20E+05 PFU/mL and 1.92E+05 PFU/mL and 2.56E+05 PFU/mL
[1]; Drug Concentration 10 μM
  virus titer: 2.00E+03 PFU/mL
[1]; by Pibrentasvir (0.1 μM)
  fold improvement of efficacy at the 90% level: six-
  fold improvement of efficacy at the 99% level: threefold
[2]; [6]
  CC50 at 3 days: 480 ± 55 µM
[3]; Conc1 1 nM, Conc2 0 nM
  Response (percentage of inhibition): 20%
[3]; Conc1 10 nM, Conc2 0 nM
  Response (percentage of inhibition): 43%
[3]; Conc1 100 nM, Conc2 0 nM
  Response (percentage of inhibition): 76.92%
[3]; Conc1 1000 nM, Conc2 0 nM
  Response (percentage of inhibition): 99.13%

## CC(C)c1nc(CN(C)C(=O)N[C@H](C(=O)N[C@@H](Cc2ccccc2)C[C@H](O)[C@H](Cc2ccccc2)NC(=O)OCc2cncs2)C(C)C)cs1 [Ritonavir]
[4]; [14]
  inhibition of SARS-CoV-2 exonuclease activity: exonuclease activity was inhibited; also recorded: inhibit the SARS-CoV-2 exonuclease in a concentration-dependent manner, but with less potency than Pibrentasvir and Ombitasvir

## CC(C)OC(=O)[C@H](C)N[P@](=O)(OC[C@H]1O[C@@H](n2ccc(=O)[nH]c2=O)[C@](C)(F)[C@@H]1O)Oc1ccccc1 [Sofosbuvir]
[1]; Drug Concentration 0.01 μM
  virus titer: 6.40E+05 PFU/mL and 1.28E+06 PFU/mL and 9.60E+05 PFU/mL
[1]; Drug Concentration 1 μM
  virus titer: 3.52E+05 PFU/mL
[2]; [6]
  CC50 at 3 days: 512 ± 34 µM
[3]; Conc1 10 nM, Conc2 0 nM
  Response (percentage of inhibition): 10%
[3]; Conc1 100 nM, Conc2 0 nM
  Response (percentage of inhibition): 20%
[3]; Conc1 1000 nM, Conc2 0 nM
  Response (percentage of inhibition): 74.62%
[3]; Conc1 10000 nM, Conc2 0 nM
  Response (percentage of inhibition): 76.92%

## CC(C)OC(=O)OCOP(=O)(CO[C@H](C)Cn1cnc2c(N)ncnc21)OCOC(=O)OC(C)C [Tenofovir, Tenofovir disoproxil]
[4]; no inhibitor, 37 °C, 15 min, compared with A-terminated natural RNA
  excision of the incorporated nucleotide analogue from RNA by the exonuclease: mostly resistant to excision by the SARS-CoV-2 exonuclease
[1]; Drug Concentration 1 μM
  virus titer: 1.02E+06 PFU/mL and 5.76E+05 PFU/mL and 7.98E+05 PFU/mL
[1]; Drug Concentration 10 μM
  virus titer: 8.00E+04 PFU/mL and 4.00E+04 PFU/mL and 6.00E+04 PFU/mL
[1]; [5]
  EC50: 4.3 µM
[1]; by Pibrentasvir (0.1 μM)
  fold increase of potency: tenfold
[2]; [6]
  CC50 at 3 days: 91 ± 25 µM
[3]; Drug1 10 nM alone (Drug2 0 nM)
  Response: 5
[3]; [11]
  Response: 30
[3]; [12]
  Response: 58.46
[3]; [13]
  Response: 88.46
